Results taken from ChEMBL document CHEMBL2094269, “WEHI/Eskitis Trypanosoma b. brucei screening data”.
Where “and” joins values, the source holds several entries; their conditions need not be identical. Equal values may be shown once.

System: Trypanosoma brucei brucei
Experiment: microbe, parasite or virus in culture
Type: functional, organism-based, STIB 795
Conditions: not given

Row | Structure (SMILES) | IC50
1 | Cc1ccc(OCc2nn(C3CC(=O)C4OCC3O4)c(=S)n2C)cc1C (stereo not given) | 4.62 µM
2 | COc1ccc(-c2nn(C3CC(=O)C4OCC3O4)c(=S)n2C)cc1OC (stereo not given) | 5.08 µM
3 | CCN1CCS/C1=C\C=C\C1=[N+](CC)CCS1 | 0.39 µM and 0.092 µM

Now from value to molecule:

Row | IC50 | Structure (SMILES)
4 | 3.25 µM | Cn1c(-c2ccco2)nn(C2CC(=O)C3OCC2O3)c1=S (stereo not given)
5 | 4.73 µM | Cc1cc2cc3c(cc2c(C)n1)c1ccccc1n3C

Same assay, conditions: Trypanosoma brucei, STIB 795

Row | Structure (SMILES) | IC50 [µM]
6 | Cc1cnc(NC(=O)c2ccc(Cl)c(Cl)c2)s1 | > 10.4
7 | Cn1ccnc1-c1c(-c2ccc(Cl)cc2)nc(-c2ccc(Cl)cc2)n1O | > 10.4
8 | O=C(Nc1ccc(Cl)c(-c2nc3ncccc3o2)c1)c1cccc(F)c1 | > 10.4
9 | COC(=O)C1=C(C)NC(=O)/C1=C\c1cccc(OC)c1OC | > 10.4
10 | Cc1cc(N)n2ncc(-c3ccc(Cl)cc3)c2n1 | > 10.4
11 | COc1ccc(CNC2=C(C(=S)Nc3ccccc3)C(=O)CC(C)(C)C2)cc1 | > 10.4
12 | CCOC(=O)c1ccc(NC(=O)CN(c2cccc(F)c2)S(C)(=O)=O)cc1 | > 10.4
13 | Cc1c(-c2noc(C(=O)NC(C)C)n2)oc2c(C)cccc12 | > 10.4
14 | CCCCN(CCCC)CCC12CC3CC(CC(C3)C1)C2 | > 10.4
15 | CN(C)CCCC1Sc2ccccc2Sc2ccccc21 (stereo not given) | > 10.4
16 | C=CCc1cccc(/C=N/NC(=O)c2nonc2C)c1O | > 10.4
17 | Cc1ccc(N2CC(C(=O)NCc3nnnn3-c3ccccc3)CC2=O)cc1C (stereo not given) | > 10.4
18 | CN(C)CC(C(=O)c1ccccc1)c1ccccc1 (stereo not given) | > 10.4
19 | CC1C(=O)Nc2ccc(S(=O)(=O)N3CCOCC3)cc2NC1=O (stereo not given) | > 10.4
20 | COc1nc(Nc2ccc(Cl)cc2)nc(NC(C)(C)C)n1 | > 10.4
21 | CCOC(=O)c1ccc(Nc2nc(-c3cccnc3)nc3ccccc23)cc1 | > 10.4
22 | C=CCn1c(=O)c(=O)n(CCC(=O)NCc2cccnc2)c2ccccc21 | > 10.4
23 | Cc1ccc(OCc2nn(C3CC(=O)C4OCC3O4)c(=S)n2C)cc1C (stereo not given) | 4.31
24 | Clc1ncnc2c1C(c1ccccc1)c1c(Cl)ncnc1O2 | > 10.4
25 | Cc1cccc(C(=O)N2CCN(c3cc(N4CCOCC4)nc(C)n3)CC2)c1 | > 10.4
26 | OC(COCc1ccc(Cl)cc1)CN1CCC(Cc2ccccc2)CC1 (stereo not given) | > 10.4
27 | CN(CC(=O)Nc1nncs1)S(=O)(=O)c1ccc(Br)cc1 | > 10.4

Row | Structure (SMILES) | IC50 [µM]
28 | CCN1c2ccccc2NC2=C(C(=O)CC(C)(C)C2)C1c1ccc(OC)cc1 (stereo not given) | > 10.4
29 | Cc1occc1C(=O)O/N=C(\N)c1ccc(Cl)cc1 | > 10.4
30 | Cc1ccc(O)c(/C=N/NC(=O)C2=NNC(c3ccccc3)(c3ccccc3)C2)c1 | > 10.4
31 | COc1ccc(-c2cc(-c3c(O)ccc4ccccc34)n[nH]2)cc1 | > 10.4
32 | CCOc1cccc(/C=N/NC(=O)c2cc(-c3ccc(CC)cc3)n[nH]2)c1O | > 10.4
33 | O=C(CN1C2=NCCN2c2ccccc21)c1ccc(Cl)cc1 | > 10.4
34 | OCCN1CCN(C2Cc3ccccc3Sc3cc(Cl)c(F)cc32)CC1 (stereo not given) | > 10.4
35 | N#Cc1ccc(-c2csc(NNC(=O)c3ccco3)n2)cc1 | > 10.4
36 | CC1=C(C#N)C(C)C2=C(c3ccccc3C2=O)N1C (stereo not given) | > 10.4
37 | O=C(N/N=C/c1cc(Cl)ccc1O)c1ccccc1Br | > 10.4
38 | COCC(=O)N/N=C/c1ccc(Sc2cccc3cccnc23)o1 | > 10.4
39 | COc1ccc(-c2nn(C3CC(=O)C4OCC3O4)c(=S)n2C)cc1OC (stereo not given) | 4.53
40 | N#C/C(=C\Nc1cc(Cl)ccc1O)c1nc2cc(Cl)ccc2o1 | > 10.4
41 | O=C(Nc1nc(NC(=O)c2ccco2)n(-c2ccccc2)n1)c1ccccc1 | > 10.4
42 | Cc1ccc(Nc2nc3nonc3nc2NC(C)c2ccccc2)cc1C (stereo not given) | > 10.4
43 | COC(=O)c1cc(-c2ccccc2)nc2c1C(=O)C(=O)C=C2N1CCCCC1 | > 10.4
44 | Fc1ccc(OCc2nn3c(-c4ccccc4Cl)nnc3s2)cc1 | > 10.4
45 | Cc1cc(C(=O)CN2CCCCC2)c(C)n1-c1ccc(Cl)c(Cl)c1 | > 10.4
46 | CCN(CC)C(=O)c1ccc(Nc2ccnc3cc4ccccc4cc23)cc1 | > 10.4
47 | CCCN(CCC)CC(O)COc1ccc2ccccc2c1 (stereo not given) | > 10.4
48 | O=C(N/N=C/c1cc(Cl)ccc1O)c1cc(C2CC2)nc2ccccc12 | > 10.4
49 | O=c1oc2ccccc2n1Cc1c(F)cccc1Cl | > 10.4

Row | Structure (SMILES) | IC50 [µM]
50 | CCN1CCN(c2cc(C)c3cc(NC(=O)c4ccccc4F)ccc3n2)CC1 | > 10.4
51 | O=C1/C(=C2\NCC(c3ccccc3)O2)Sc2ccccc21 (stereo not given) | > 10.4
52 | Cc1cc(C)c(C(=O)CC(SCC(=O)OC(C)C)C(F)(F)F)c(=O)[nH]1 (stereo not given) | > 10.4
53 | Cn1c(SC2=CS(=O)(=O)c3ccccc32)nc2ccccc21 | > 10.4
54 | CC1(C)CC(=O)C(C2(O)C(=O)Nc3ccc(Br)cc32)CO1 (stereo not given) | > 10.4
55 | C/C(=N/Nc1ccc(F)cc1F)c1cc2cc(Br)ccc2oc1=O | > 10.4
56 | CCc1cc(-c2n[nH]c(C)c2-c2nc3ccccc3s2)c(O)cc1O | > 10.4
57 | N=C(NOC(=O)c1ccoc1)c1ccc(Br)cc1 | > 10.4
58 | Cc1ccc(C(=O)O/N=C(\N)c2cccnc2)cc1Cl | > 10.4
59 | CCCC(=O)NC(c1ccc2c(c1)OCO2)c1cc(Cl)c2cccnc2c1O (stereo not given) | > 10.4
60 | CC(NC(=O)c1cc(S(=O)(=O)N2CCCC2)cn1C)c1ccccc1 (stereo not given) | > 10.4
61 | CCCCN(CCCC)CCNC(=O)Nc1ccc(Cl)cc1 | > 10.4
62 | O=C(Nc1cc(Cl)cc(Cl)c1)c1ccccn1 | > 10.4
63 | CCCc1ccc(C(OCCN(C)C)c2ccc(CCC)cc2)cc1 | > 10.4
64 | Cc1nc(NC(C)(C)C)c2sc3nc4c(cc3c2n1)COC(C)(C)C4 | > 10.4
65 | CCOC(=O)c1sc(-n2[nH]c(C)c(Cc3ccc(Cl)cc3)c2=O)nc1C | > 10.4
66 | Cc1cc(C)n(-c2nc(N/N=C/c3cccs3)nc(Nc3ccccc3)n2)n1 | > 10.4
67 | COc1nc(Nc2nc(O)c3ccccc3n2)nc2ccc(C)cc12 | > 10.4
68 | CN1CCC(C2Oc3ccc(F)cc3Sc3ccc(Cl)cc32)CC1 (stereo not given) | > 10.4
69 | CC(C)(C)c1ccc(C(=O)NNC(=O)c2cnccn2)cc1 | > 10.4

Other lines, results leading:

Row | IC50 [µM] | Structure (SMILES)
70 | > 10.4 | CCOC(=O)Cc1csc(NC(=O)c2ccccc2F)n1
71 | > 10.4 | CN(C)CCOC1c2ccccc2CCc2ccc3ccccc3c21 (stereo not given)
72 | > 10.4 | O=C(Cn1ncc(Cl)c(Cl)c1=O)c1ccccc1
73 | > 10.4 | COc1ccc2c(C)c/c(=N/N=C\c3ccccc3O)[nH]c2c1
74 | 5.5 | Cn1c(-c2ccco2)nn(C2CC(=O)C3OCC2O3)c1=S (stereo not given)
75 | > 10.4 | CCOC(=O)c1ccc(CCCCCOc2cnc(N)nc2N)cc1
76 | > 10.4 | CCCCNc1ccc2cccc(O)c2n1
77 | > 10.4 | O=C(Nc1nc(-c2ccccn2)cc2ccccc12)c1cccc(Cl)c1
78 | > 10.4 | CCOC(=O)c1cnc2c(CC)cccc2c1NC1CC(C)(C)NC(C)(C)C1
79 | > 10.4 | COc1ccccc1-n1c(C)cc(/C=C2\C(=N)N3C(C)=CSC3=NC2=O)c1C
80 | > 10.4 | CCN(CC)c1cc(C)nc(NCc2ccccc2)n1
81 | > 10.4 | CC(=O)c1ccc2c(c1)[nH]c1cc(C(C)=O)ccc12
82 | > 10.4 | COc1ccc(/C(N)=N/OC(=O)c2ccc(C)c(C)c2)cc1
83 | > 10.4 | CCC(=O)NCCc1nc(-c2ccccc2)cs1
84 | > 10.4 | Cc1ccc(C(CNC(=O)c2ccc(Br)cc2)N2CCCC2)cc1 (stereo not given)
85 | > 10.4 | Nc1ccccc1SC(CC(=O)c1ccc(F)cc1)c1ccccc1 (stereo not given)
86 | > 10.4 | CC1=C/C(=N\OC(=O)c2ccccc2Cl)CC(C)(C)C1
87 | > 10.4 | O=C(Nc1cccc(Cl)c1)C1CCN(c2ncc(-c3ccccc3)cn2)CC1
88 | > 10.4 | N=C(N)Nc1nc(-c2ccccc2)c2cc(Cl)ccc2n1

Row | IC50 [µM] | Structure (SMILES)
89 | > 10.4 | CCn1nc(-c2ccc(OC)cc2)nc2c(=O)n(C)c(=O)nc1-2
90 | > 10.4 | O=C1C(=O)N(Cc2cc(F)cc(F)c2)c2ccc(Br)cc21
91 | > 10.4 | CCOC(=O)c1c(N)sc2c(OCC)c(Br)ccc12
92 | > 10.4 | CCn1cc(CN2CCC(C(=O)NCc3ccc(F)cc3)CC2)c2ccccc21
93 | > 10.4 | O=c1c(Cl)c(Cl)cnn1C12CC3CC(CC(C3)C1)C2
94 | > 10.4 | Oc1ccccc1/C=N/Nc1ncc(Cl)cc1Cl
95 | > 10.4 | COc1ccc(C(CC(=O)c2ccco2)SCc2ccco2)cc1OC (stereo not given)
96 | > 10.4 | C=CCc1cccc(/C=N/NC(=O)c2cccs2)c1O
97 | > 10.4 | Cn1c(NC(=O)c2ccccc2NC(=O)c2ccccc2)nc2ccccc21
98 | > 10.4 | COc1ccccc1C(=O)NCCc1csc(-c2cccc(F)c2)n1
99 | > 10.4 | COc1cc(NC(=O)Nc2ccc(-c3noc(C)n3)cc2)cc(OC)c1OC
100 | > 10.4 | Cc1ccsc1/C=C/C(=O)Nc1ccc2nc(N3CCCCC3)cc(C)c2c1
101 | > 10.4 | CC(=O)N1/C(=C/c2ccncc2)C(=O)c2ccccc21
102 | > 10.4 | CCOC(=O)c1ccc(NC(=O)NC23CC4(C)CC(C)(CC(C)(C4)C2)C3)cc1
103 | > 10.4 | O=C(CC1(O)C(=O)Nc2ccc(Br)cc21)c1ccccn1 (stereo not given)
104 | > 10.4 | C=CC1=Nc2ccccc2C(c2ccccc2)(c2ccccc2)N1
105 | > 10.4 | Fc1ccc(C2CCCN(CCN3CCCC3)c3cc(F)ccc32)cc1 (stereo not given)
106 | > 10.4 | CC(=O)Nc1cccc2c1C(=O)C(Cl)=C(N1CCOCC1)C2=O
107 | > 10.4 | CCN(CC)c1ccc(/C=N\NC(=O)c2ccccn2)c(O)c1

Row | IC50 [µM] | Structure (SMILES)
108 | > 10.4 | CCOC(=O)C(=Cc1ccc(Br)cc1)C(=O)OCC
109 | > 10.4 | CCN(CC)S(=O)(=O)c1cccc(N/N=C2\C=CC(=O)c3cccnc32)c1
110 | > 10.4 | Clc1nn2nnnc2c2ccccc12
111 | > 10.4 | O=C(CCSc1ccccc1)Nc1nc(-c2ccccn2)cs1
112 | > 10.4 | C=CCN1C(=O)c2ccccc2Sc2ccc(C(=O)NCc3ccco3)cc21
113 | > 10.4 | Cc1ccn(CC(=O)N/N=C/c2c(O)ccc3ccccc23)n1
114 | > 10.4 | Cc1ccc(NC(=O)C/C(N)=N/OC(=O)c2ccccc2Cl)cc1
115 | > 10.4 | CCOC(=O)c1c(C)[nH]c2c1-c1cc(Br)ccc1C(=O)C2=O
116 | > 10.4 | CC[n+]1c(/C=C2\Sc3ccccc3N2CCC(=O)O)sc2ccccc21
117 | > 10.4 | CN(C)c1ccc(C2(c3ccc(N(C)C)cc3)C=Cc3ccccc3O2)cc1
118 | > 10.4 | Cn1c(=O)cc(NNc2ccccc2)[nH]c1=O
119 | > 10.4 | O=C(N/N=C/c1ccc(O)c2ncccc12)c1ccco1
120 | > 10.4 | CCOC(=O)COC1=C(c2ccccc2)C(=O)c2ccccc2C1=O
121 | > 10.4 | Cc1ncc(C)c2c1[nH]c1ccccc12
122 | > 10.4 | O=C(Cc1cccs1)Nc1ccc(C(=O)Nc2nccs2)cc1
123 | > 10.4 | C/C(=C\c1nsc(Nc2ccc(F)c(Cl)c2)n1)Nc1ccc(C)cc1
124 | > 10.4 | C=CCc1cccc(/C=N/NC(=O)c2cc(C(C)(C)C)n[nH]2)c1O
125 | 5.19 | Cc1cc2cc3c(cc2c(C)n1)c1ccccc1n3C
